Data as given in patent US11603546B2, “Method for preparing modified starch and use thereof” (Qilu University of Technology, priority 2020, dated 2023).
Marks after values point to notes of the source that are not given here.

What was measured:
[1] = system: mice with type II diabetes (STZ injection plus high-glucose-high-fat diet); test: Type II diabetes mouse model: HE staining of liver sections; type: in vivo, Kunming strain mice; conditions: diabetic mice, intervention groups (FIGS. 9 to 13)
Description: Fifty mice were pregrouped and labeled. In the experiment, type II diabetes models were established by streptozotocin (STZ) injection plus induction by high-glucose-high-fat diet. […] The mice were randomized into five groups of 10 animals: normal group, diabetic control group, glimepiride group, RS group, and modified starch+GSPAs group; before modeling, the mice were weighed.
The normal group was fed with normal diet for three weeks, while the remaining four groups were fed with high-glucose-high-fat diet for three weeks; then, the animals were deprived of food hut not water for 12 h; […] (which was prepared with 0.1 mol/L citric acid-sodium citrate buffer solution [pH 4.4 (4.2-4.5)] at a low temperature) was prepared when needed, and was injected intraperitoneally at a single dose of 50 mg/kg (0.5 mg/10 g) of body weight within 30 min; the mice in the normal group were given isodose citric acid-sodium citrate buffer solution and injected at a dose of 50 mg/kg every three days, during which the mice were fed with high-glucose-high-fat diet. After 72 h, the mice were deprived of food but not water for 12 h, and blood was collected from the tail vein to test the fasting blood glucose (FBG); the mice with FBG≥12 mmol/1, with obesity and polyuria were considered as the criteria for successful modeling. […]

[2] = system: mice with type II diabetes (STZ injection plus high-glucose-high-fat diet); test: Type II diabetes mouse model: TC, TG, HDL-C, LDL-C; type: in vivo, Kunming strain mice; conditions: diabetic mice, gavage once daily, four weeks
Description: Fifty mice were pregrouped and labeled. In the experiment, type II diabetes models were established by streptozotocin (STZ) injection plus induction by high-glucose-high-fat diet. […] The mice were randomized into five groups of 10 animals: normal group, diabetic control group, glimepiride group, RS group, and modified starch+GSPAs group; before modeling, the mice were weighed. […] The normal group was fed with normal diet for three weeks, while the remaining four groups were fed with high-glucose-high-fat diet for three weeks; then, the animals were deprived of food hut not water for 12 h; […] (which was prepared with 0.1 mol/L citric acid-sodium citrate buffer solution [pH 4.4 (4.2-4.5)] at a low temperature) was prepared when needed, and was injected intraperitoneally at a single dose of 50 mg/kg (0.5 mg/10 g) of body weight within 30 min; the mice in the normal group were given isodose citric acid-sodium citrate buffer solution and injected at a dose of 50 mg/kg every three days, during which the mice were fed with high-glucose-high-fat diet. After 72 h, the mice were deprived of food but not water for 12 h, and blood was collected from the tail vein to test the fasting blood glucose (FBG); the mice with FBG≥12 mmol/1, with obesity and polyuria were considered as the criteria for successful modeling. Ten normal and healthy mice were assigned to the normal group; the remaining successful modeled mice with type II diabetes were grouped into four groups of 10 animals according to the blood glucose level; the test period was four weeks. Specific groups are listed in Table 2: bw represents body weight. [table] Instructions for gavage dosing: The mice were administered by gavage once daily, in a volume of 0.4 mL. Also, total cholesterol (TC), triglyceride (TG), and low density lipoprotein cholesterol (LDL-C) were tested for diabetic mice, as shown in Table 3.

## CCC1=C(C)CN(C(=O)NCCc2ccc(S(=O)(=O)NC(=O)N[C@H]3CC[C@H](C)CC3)cc2)C1=O [Glimepiride, glimepiride]
[1]
  HE staining of liver sections: improve symptoms of disordered liver cells and massive inflammatory cell infiltration
[2]
  High density lipid cholesterol (HDL-C): 2.26 ± 0.31^a mmol/L
  LDL-C: 0.65 ± 0.17^b mmol/L
  TC: 3.16 ± 0.37^b mmol/L
  TG: 1.06 ± 0.09^b mmol/L
